Measurements taken from patent publication US7959904B2, “Delivery of medicaments to the nail” (University of Mississippi, priority 2001, dated 2011).

Assay: Permeability study through full thickness nail plates in modified Franz diffusion cells
Format: in vitro ADME, human
Conditions: for Total permeation of drug through nail plates: phosphate buffer pH 7.2 / 0.5% Brij 58 donor, after 48 hours
Description: Example 6 examines permeability of the medicament into the nail. For this Example, ketoconazole is utilized as a model drug to perform permeability studies. The drug is dissolved in two different media for testing which functioned as the donor solution. The first is an isotonic phosphate buffer solution (pH 7.2) with 0.5% Brij 58 as a solubilizer. The second is an 80:20 methanol/water solution buffered to pH 7.2. The receptor media is the same as the donor media without dissolved drug in both cases.
A system employing 9 modified glass Franz diffusion cells is used. Full thickness nail plates are sandwiched between two polypropylene adapters with an O-ring and were mounted on the individual cells with the dorsal nail plate facing the donor compartment (receptor volume 5.2 ml; donor surface area 0.5 cm^2). The receptor fluid is maintained at 37±0.5° C. and is continuously stirred with a magnetic bar. The donor solutions are applied to the dorsal nail surface following a one hour hydration period. Samples of the receptor phase are withdrawn at predetermined time intervals (for up to 48 hours) and immediately replaced with fresh […]. Analysis of the samples is corrected for previous drug removed. The receptor and donor compartments are sealed with a sheet of aluminum foil and wrapped with parafilm. The hermeticity of the system was continuously monitored. Drug content in the receptor media is determined using high performance liquid chromatography.

CC(=O)N1CCN(c2ccc(OCC3COC(Cn4ccnc4)(c4ccc(Cl)cc4Cl)O3)cc2)CC1 (stereo not drawn) [ketoconazole]
Greater total permeation, etched vs nonetched nail (80:20 methanol/water buffered to pH 7.2 donor): ~3 fold | Total permeation of drug through nail (80:20 methanol/water buffered to pH 7.2 donor, etched nail): 6,191±323.3 μg/cm^2 | Total permeation of drug through nail (80:20 methanol/water buffered to pH 7.2 donor, nonetched nail): 2,497±237 μg/cm^2 | Total permeation of drug through nail plates (etched nail plates): 1,873 (±155) μg/cm^2 | Total permeation of drug through nail plates (unetched nail plates): 446 (±51) μg/cm^2 | Difference in total permeation, etched vs unetched nail (phosphate buffer/Brij 58 donor, 48 hours): ~4 fold
